Activity calls are given as the source filed them.
Legend:
[1] = microbe, parasite or virus in culture; assay type: functional; settings: Mycobacterium tuberculosis
[2] = growth suppression of beta-catenin-knockout colon cells, dose response, cell-based, HCT116, human colon tumor (AID 1045); assay type: functional;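 note: HCT116 colon tumor cells with beta catenin knocked out; cells exposed to compound for 60 hours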
[3] = growth suppression of PTEN-null colon cells, dose response, cell-based, HCT116 PTEN knockout (AID 1047); assay type: functional;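 note: HCT116 colon tumor cells with PTEN knocked out; cells exposed to compound for 60 hours before readout; potency for loss of cell viability measured by luminescence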
cells [4] = assay type: functional
[5] = biological target: Luciferin 4-monooxygenase (Photinus pyralis, UniProt P08659); assay: firefly luciferase enzyme inhibitors, dose response, biochemical, luminescence (AID 1891)
[6] = Luminescence Cell-Based Dose Confirmation HTS to Identify Inhibitors of Platelet Dense Granule Release. [Related pubchem assays: 1663 (Primary HTS), 1678 (Summary of Project)]; assay type: functional
[7] = biological target: Induced myeloid leukemia cell differentiation protein Mcl-1 (Homo sapiens, UniProt Q07820); assay type: functional
cells [8] = assay type: functional, cell-based
cells [9] = assay type: functional, cell-based; remark: listed apart in the source
Cytochrome P450 1A2 = biological target: T1, Cytochrome P450 1A2 (Homo sapiens, UniProt P05177);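 note: PubChem cytochrome P450 panel assay, CYP1A2 panel member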
T1 sequence (P05177 whole entry): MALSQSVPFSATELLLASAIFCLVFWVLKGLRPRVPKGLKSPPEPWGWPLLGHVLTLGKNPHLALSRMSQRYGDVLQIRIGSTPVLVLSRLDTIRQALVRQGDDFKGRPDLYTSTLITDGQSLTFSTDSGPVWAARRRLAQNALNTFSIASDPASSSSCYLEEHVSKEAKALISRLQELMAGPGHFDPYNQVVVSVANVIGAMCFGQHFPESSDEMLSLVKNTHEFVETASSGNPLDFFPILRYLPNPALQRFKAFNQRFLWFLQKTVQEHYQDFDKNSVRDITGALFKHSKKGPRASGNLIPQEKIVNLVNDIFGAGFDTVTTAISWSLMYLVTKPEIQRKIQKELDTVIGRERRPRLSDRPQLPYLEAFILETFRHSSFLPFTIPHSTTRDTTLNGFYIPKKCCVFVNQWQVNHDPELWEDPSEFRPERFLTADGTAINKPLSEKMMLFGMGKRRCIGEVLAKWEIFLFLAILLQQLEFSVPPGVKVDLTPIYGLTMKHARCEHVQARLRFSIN

[10] = biological target: T2, Carboxy-terminal domain RNA polymerase II polypeptide A small phosphatase 1 (Homo sapiens, UniProt Q9GZU7); assay: inhibitors of CTDSP1, concentration-response testing, biochemical assay, absorbance-based, actives from ultra-high-throughput screening (AID 540297); assay type: functional
T2 sequence (Q9GZU7 whole entry): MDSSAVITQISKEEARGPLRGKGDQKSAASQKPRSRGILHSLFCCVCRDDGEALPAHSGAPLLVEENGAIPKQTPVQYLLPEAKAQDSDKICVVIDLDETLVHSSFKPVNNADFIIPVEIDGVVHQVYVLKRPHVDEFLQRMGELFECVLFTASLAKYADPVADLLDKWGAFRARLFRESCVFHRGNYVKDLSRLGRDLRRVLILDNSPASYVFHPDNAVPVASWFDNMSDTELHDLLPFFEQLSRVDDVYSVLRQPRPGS

[11] = LGR2 antagonists, dose response, cell-based, HEK293, CRE-luciferase reporter, cherry pick, set 2 (AID 743343); assay type: functional;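 note: transfected cells were stimulated with diluted bursicon conditioned medium after compound addition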
[12] = A549 cell cytotoxicity, dose response, cytotoxicity control, plate reader, cherry-pick, antagonist series (AID 743412); assay type: functional, cell-based
[13] = MC4R antagonists, dose response, counter-screen for LGR2 antagonist project, cell-based, plate reader, cherry pick (AID 743444); assay type: functional;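 note: transfected HEK 293 cells stimulated with alpha-MSH peptide; potency of inhibitors of the alpha-MSH evoked signal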
[14] = Luminescence Cell-Based Dose Retest to Confirm Inhibitors of Cancer Stem Cells. [Related pubchem assays (depositor defined):AID2717, AID2721]; assay type: functional; settings: Homo sapiens
[15] = NIH-3T3 fibroblast cytotoxicity, dose response, cytotoxicity control, cell-based, fluorescence, Alamar Blue, secondary assay (AID 2327); assay type: functional;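 note: NIH-3T3 mouse fibroblasts cultured with fluconazole at 8 µg/mL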
[16] = C. albicans growth with fluconazole, confirmation, fluorescence, retest (AID 2467); assay type: functional, cell-based
Cytochrome P450 2C9 = Cytochrome P450 2C9 (Homo sapiens, UniProt P11712)
Cytochrome P450 3A4 = Cytochrome P450 3A4 (Homo sapiens, UniProt P08684);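 note: CYP3A4 tested as one member of a cytochrome P450 panel screen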
[17] = inhibitors of firefly luciferase expression or activity, dose response, H4 neuroglioma cells, luminescence (AID 1990); assay type: functional, cell-based
[18] = Luminescence Cell-Based Dose Response HTS to Identify Inhibitors of 5'UTR Stem-Loop Driven Prion Protein mRNA Translation in H4 Neuroglioblastoma Cells. [Related pubchem assays: 1827 (Project Summary), 1813 (Primary HTS)]; assay type: functional
[19] = inhibitors of SNCA 5'UTR-driven reporter translation, confirmation, H4 neuroglioma cells, luminescence (AID 1988); assay type: functional, cell-based
[20] = inhibitors of intracellular T. cruzi replication, confirmation, NIH3T3 host cells, beta-gal luminescence (AID 2044); assay type: functional, cell-based;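 note: intracellular parasites grown in NIH/3T3 mouse fibroblasts as host cells; luminescent beta-galactosidase reporter signal from transgenic T. cruzi replicating inside host cells; inhibitors lower the luminescence signal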
[21] = cytotoxicity toward NIH3T3 fibroblasts, dose response, counter-screen, cell-based, ATP luminescence, mouse fibroblasts (AID 2010); assay type: functional;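 note: cells exposed to compound for about 90 hours before reading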
H9c2 = assay: cells; assay type: functional, cell-based; settings: Rattus norvegicus, H9c2, Myocardium;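 note: confirmatory concentration-response retest of ultra-high-throughput screening hits for modulation of myocardial damage; cell death induced by hydrogen peroxide oxidative stress; compound pretreatment for 60 min then peroxide exposure for 2 h; potency is for protecting the cells against peroxide damage rather than for killing them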
P388/ADR = assay: cells; assay type: functional; settings: Mus musculus
SN12K1 = assay: cells; assay type: functional; settings: Homo sapiens
[22] = inhibitors of clade B AD8 Env fusion, dose response, cell-based, cherry-pick (AID 652062); assay type: functional;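 note: luciferase signal from cell-cell fusion driven by HIV-1 clade B AD8 Env; potency is for inhibitors of fusion seen as a drop in luminescence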
Cytochrome P450 2C19 = Cytochrome P450 2C19 (Homo sapiens, UniProt P33261); assay: Cytochrome panel assay with activity outcomes. Panel member name: p450-cyp2c19 Compounds with AC50 equal or less than 10 uM are considered active; assay type: functional; settings: read-out: AC50
Chain of Cytochrome P450 2C19 (P33261 whole entry): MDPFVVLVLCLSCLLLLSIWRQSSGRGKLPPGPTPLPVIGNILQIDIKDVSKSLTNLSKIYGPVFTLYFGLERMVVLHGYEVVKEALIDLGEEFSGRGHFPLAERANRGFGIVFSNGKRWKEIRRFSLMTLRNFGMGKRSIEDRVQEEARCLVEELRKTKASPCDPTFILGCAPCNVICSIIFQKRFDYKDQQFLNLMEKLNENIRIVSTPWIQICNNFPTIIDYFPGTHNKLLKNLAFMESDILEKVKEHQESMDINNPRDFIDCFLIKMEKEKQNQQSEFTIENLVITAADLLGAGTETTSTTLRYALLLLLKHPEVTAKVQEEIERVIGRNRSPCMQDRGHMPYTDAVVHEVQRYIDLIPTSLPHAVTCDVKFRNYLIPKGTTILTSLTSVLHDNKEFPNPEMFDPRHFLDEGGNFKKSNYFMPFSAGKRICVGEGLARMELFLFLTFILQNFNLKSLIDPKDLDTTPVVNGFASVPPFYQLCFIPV

Chain of Luciferin 4-monooxygenase (P08659 whole entry): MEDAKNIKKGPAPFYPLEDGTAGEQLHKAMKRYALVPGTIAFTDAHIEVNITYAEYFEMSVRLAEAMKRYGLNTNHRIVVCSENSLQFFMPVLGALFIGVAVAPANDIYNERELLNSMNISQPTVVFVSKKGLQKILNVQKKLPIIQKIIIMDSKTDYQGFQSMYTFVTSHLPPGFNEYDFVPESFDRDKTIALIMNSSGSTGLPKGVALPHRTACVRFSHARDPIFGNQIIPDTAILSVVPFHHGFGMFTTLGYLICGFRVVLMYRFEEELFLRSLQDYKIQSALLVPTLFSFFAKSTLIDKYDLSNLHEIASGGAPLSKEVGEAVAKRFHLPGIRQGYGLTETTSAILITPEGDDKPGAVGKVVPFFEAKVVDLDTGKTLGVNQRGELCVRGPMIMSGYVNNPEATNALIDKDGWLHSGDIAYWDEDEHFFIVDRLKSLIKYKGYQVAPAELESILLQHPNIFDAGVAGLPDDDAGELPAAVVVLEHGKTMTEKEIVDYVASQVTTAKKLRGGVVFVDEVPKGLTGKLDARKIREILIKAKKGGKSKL
Chain of Induced myeloid leukemia cell differentiation protein Mcl-1 (Q07820 whole entry): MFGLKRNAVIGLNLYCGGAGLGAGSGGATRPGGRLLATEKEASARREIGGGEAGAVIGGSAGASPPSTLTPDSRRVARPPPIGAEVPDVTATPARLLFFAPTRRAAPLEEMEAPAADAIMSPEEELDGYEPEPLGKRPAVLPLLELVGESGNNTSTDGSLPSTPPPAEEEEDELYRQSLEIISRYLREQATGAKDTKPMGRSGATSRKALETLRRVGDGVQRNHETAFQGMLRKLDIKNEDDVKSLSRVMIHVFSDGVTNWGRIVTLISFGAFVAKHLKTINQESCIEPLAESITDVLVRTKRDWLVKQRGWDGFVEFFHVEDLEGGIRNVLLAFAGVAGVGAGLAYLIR
Chain of Cytochrome P450 2C9 (P11712 whole entry): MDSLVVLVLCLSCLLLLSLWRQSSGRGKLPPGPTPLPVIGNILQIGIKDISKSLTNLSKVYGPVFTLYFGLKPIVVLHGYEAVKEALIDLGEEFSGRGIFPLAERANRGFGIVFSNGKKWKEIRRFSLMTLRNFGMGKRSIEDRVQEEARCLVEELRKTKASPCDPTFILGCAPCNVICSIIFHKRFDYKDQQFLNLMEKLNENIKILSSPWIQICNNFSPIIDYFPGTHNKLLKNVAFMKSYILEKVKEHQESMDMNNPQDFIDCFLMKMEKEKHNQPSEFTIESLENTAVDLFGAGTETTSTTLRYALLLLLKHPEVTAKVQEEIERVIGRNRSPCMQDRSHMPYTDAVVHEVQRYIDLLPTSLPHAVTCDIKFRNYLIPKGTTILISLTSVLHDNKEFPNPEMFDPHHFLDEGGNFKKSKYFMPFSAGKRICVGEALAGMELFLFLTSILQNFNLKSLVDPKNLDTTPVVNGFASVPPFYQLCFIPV
Chain of Cytochrome P450 3A4 (P08684 whole entry): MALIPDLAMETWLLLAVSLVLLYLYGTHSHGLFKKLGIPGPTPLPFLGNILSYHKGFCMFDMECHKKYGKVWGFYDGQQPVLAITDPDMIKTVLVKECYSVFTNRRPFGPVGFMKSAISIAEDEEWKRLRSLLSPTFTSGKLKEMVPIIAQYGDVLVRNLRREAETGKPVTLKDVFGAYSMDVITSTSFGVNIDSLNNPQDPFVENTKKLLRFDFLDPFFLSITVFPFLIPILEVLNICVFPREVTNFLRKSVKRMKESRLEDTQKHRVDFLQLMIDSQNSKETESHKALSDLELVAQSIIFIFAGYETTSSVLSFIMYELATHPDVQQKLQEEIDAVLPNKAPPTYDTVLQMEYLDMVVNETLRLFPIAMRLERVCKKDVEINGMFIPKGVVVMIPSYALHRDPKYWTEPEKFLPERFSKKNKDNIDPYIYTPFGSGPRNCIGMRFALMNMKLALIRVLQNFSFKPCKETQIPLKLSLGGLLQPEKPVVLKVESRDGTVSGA

In the case of CCCCn1nc(C(=O)N[C@@H](CCSC)c2nc3ccccc3[nH]2)c2ccccc2c1=O, the CC50 [1] is reported as > 40 µM (active).

With CC1CCN(Cc2c(O)ccc3c(O)c(-c4nc5ccccc5s4)c(=N)oc23)CC1 the EC50 [2] was 16.8 µM (active) and the EC50 [3] was 16.6 µM (active).

With Cc1ccc(CN2CC(C(=O)OCc3ccccc3Cl)CC2=O)cc1 (stereo not given) the IC50 (cells [4]) was 7.41 µM (active).

With Cc1cccc(OCc2nnc(SCC(=O)Nc3ncc(C)s3)o2)c1 the EC50 [5] was > 112 µM (not active) and the EC50 [6] was > 112 µM (not active).

For CCOC(=O)COc1ccc(C(=O)NC2CCCCC2)cc1, the IC50 (cells [4]) was 7.69 µM (active).

For Cn1cc(NC(=O)CCl)cn1, the CC50 [1] was > 40 µM (active).

For CC(=O)NC1=C(NC2CCS(=O)(=O)C2)C(=O)c2ccccc2C1=O (stereo not given), the IC50 [7] was 2.54 µM (active).

For CCNc1nc(Oc2ccc(=O)n(-c3ccccc3)n2)nc(N(C)C)n1, the EC50 [5] was > 112 µM (not active) and the EC50 [6] was > 112 µM (not active).

For O=C(CSc1nnc(C2CC2)n1-c1ccccc1)Nc1ccc(N2CCOCC2)cc1, the EC50 [5] was > 112 µM (not active) and the EC50 [6] was > 112 µM (not active).

For CCN(C(=O)CSc1nc[nH]n1)C1CCCCC1, the EC50 (cells [8]) was > 350 µM (not active) and the EC50 (cells [9]) was > 350 µM (not active).

For COc1ccc2c(c1)c(=O)oc1cc(OCC(=O)NC3CC3)ccc12, the EC50 [2] was 37.7 µM (active) and the EC50 [3] was 14.1 µM (active).

With COc1ccc([N+](=O)[O-])cc1C1NN=C(c2cccc3ccccc23)S1 (stereo not given) the EC50 [5] was > 112 µM (not active) and the EC50 [6] was > 112 µM (not active).

For CC(=O)N1CCC2(CC1)CC(=O)c1cc(OCC(=O)N3CCN(C)CC3)ccc1O2, the AC50 (Cytochrome P450 1A2) was 39.8 µM (inconclusive).

With O=C(COC(=O)c1ccc(S(=O)(=O)N2CCCCC2)cc1)NCc1ccco1 the IC50 [10] was 10.5 µM (active).

With COC(=O)C1CCN(C(=O)COC(=O)CNS(=O)(=O)c2ccc(SC)c([N+](=O)[O-])c2)CC1 the IC50 [10] was 13.5 µM (active).

For CN(C)c1cccc(C(=O)Nc2nc3ccccc3[nH]2)c1, the AC50 [11] was 6.18 µM (active), the AC50 [12] was > 52 µM (inactive) and the AC50 [13] was 5.96 µM (active).

In the case of COc1cc(NS(=O)(=O)c2ccc(N/C=C(\C#N)c3nc4cc(Cl)ccc4o3)cc2)nc(OC)n1, the EC50 [2] is reported as 14.7 µM (active), the EC50 [3] is reported as 12.7 µM (active) and the AC50 [14] is reported as 2.08 µM (active).

With O=C(C1CCC1)N1CCN(S(=O)(=O)c2ccc(Br)cc2Cl)CC1 the CC50 [1] was > 40 µM (active).

In the case of CCc1c(C)nc2ccc(OC)cc2c1S, the IC50 [7] is reported as 0.628 µM (active).

In the case of O=C(c1ccc2c(c1)OCO2)N1CCC2(CC1)Oc1ccc(F)cc1C(=O)C21CC(c2cccnc2)=NO1 (stereo not given), the EC50 [15] is reported as 49.2 µM (active) and the EC50 [16] is reported as 0.566 µM (inconclusive).

With O=C1CC(/C=C/c2ccc(Cl)cc2)=Nc2ccccc2N1 the CC50 [1] was 23.8 µM (active).

For CCOc1ccc2nc(N=C(S)N(C)C)sc2c1, the EC50 [15] was > 150 µM (inactive) and the EC50 [16] was 2.33 µM (active).

With Cn1cc(SCC(=O)Nc2nc3ccccc3s2)c2ccccc21 the EC50 [5] was > 112 µM (not active) and the EC50 [6] was > 112 µM (not active).

With CC1=C(C(N)=O)C(c2ccccn2)n2nc(SCc3ccccc3Cl)nc2N1 (stereo not given) the AC50 (Cytochrome P450 1A2) was 15.8 µM (inconclusive) and the AC50 (Cytochrome P450 2C9) was 20 µM (inconclusive).

For COc1ccc(CNC(=O)/C=C\c2ccc3[nH]cc(CCN(C)C)c3c2)cc1, the AC50 (Cytochrome P450 1A2) was 39.8 µM (inconclusive).

With O=C1NC(=O)N(CCC2=CCCCC2)C(=O)/C1=C(O)/C=C/c1ccc2c(c1)OCO2 the EC50 [2] was 15 µM (active), the EC50 [3] was 17.1 µM (active) and the AC50 [14] was 1.37 µM (active).

With CC(C)Cc1nc(N2CCN(C(=O)c3ccccc3)CC2)c(C#N)c2c1CCC2 the AC50 (Cytochrome P450 1A2) was 25.1 µM (inconclusive).

With Cc1cc(Cl)nc(NC(=O)CSc2ccc(Cl)cc2)n1 the AC50 (Cytochrome P450 1A2) was 5.01 µM (inconclusive).

With N#C/C(=C\c1ccc[nH]1)C(=O)Nc1ccccc1[N+](=O)[O-] the IC50 [10] was 7.3 µM (active).

With COc1ccc(C(=O)N2CCC[C@@]3(CCN(C(=O)NC(C)C)C3)C2)cc1 the AC50 (Cytochrome P450 3A4) was 20 µM (inconclusive) and the AC50 (Cytochrome P450 1A2) was 12.6 µM (inconclusive).

In the case of COc1cnn(-c2ccc(Br)cc2)c(=O)c1SCc1ccccc1, the IC50 [7] is reported as 3.25 µM (not active).

With O=C(NC1CCCCC1)C(c1cccs1)N(CCCN1CCOCC1)C(=O)c1ccc(-c2ccccc2)[nH]1 (stereo not given) the CC50 [1] was > 40 µM (active).

For COc1ccc(NC(=O)c2cc(S(=O)(=O)N3CCOCC3)cn2C)c(OC)c1, the EC50 [5] was > 112 µM (not active) and the EC50 [6] was > 112 µM (not active).

For COc1ccc(/C=C(/NC(=O)c2ccccc2)c2nc3cc(Cl)ccc3[nH]2)cc1OC, the EC50 [15] was > 150 µM (inconclusive) and the EC50 [16] was 4.44 µM (active).

With CCCCn1c(CCC(=O)O)ccc1-c1cccs1 the EC50 [5] was > 112 µM (not active) and the EC50 [6] was > 112 µM (not active).

For C=CCOc1nc(-c2ccccc2Cl)nc2ccccc12, the EC50 (cells [8]) was > 350 µM (not active), the EC50 [17] was 69.1 µM (active) and the EC50 [18] was > 120 µM (not active). The EC50 [19] was 17.4 µM (active) and the EC50 (cells [9]) was > 350 µM (not active).

In the case of CC(C)OC(=O)CCCCCN1C(=O)CSC1=S, the IC50 (cells [4]) is reported as 6.29 µM (active), the EC50 [20] is reported as 4.77 µM (active) and the EC50 [21] is reported as 8.46 µM (active). For the same compound, the CC50 [1] was 31.3 µM (active).

In the case of O=C(NCc1ccco1)C1Cc2ccccc2CN1S(=O)(=O)c1ccccc1F (stereo not given), the IC50 [10] is reported as 5.41 µM (active).

For CNC(=O)c1ccc(-c2sc3nc(N4CCOCC4)c4c(c3c2N)CCCC4)o1, the IC50 (H9c2) was 14.2 µM (active), the EC50 [2] was 24.6 µM (active) and the EC50 [3] was 23.5 µM (active).

For Cn1c(=O)c(Oc2ccc(Cl)cc2)c(O)c2ccccc21, the IC50 (cells [4]) was 3.7 µM (active).

For CCOc1ccc(C(C)=O)cc1N1C(=O)C2C3C=CC(C3)C2C1=O (stereo not given), the IC50 [10] was 15.8 µM (active).

In the case of CN(C)c1cccc(OC(=O)NCCCl)c1, the GI50 (P388/ADR) is reported as 31 µM (inactive) and the GI50 (SN12K1) is reported as > 100 µM (inactive).

With CCc1cnc(N2[C@H](C#N)[C@H](c3ccc(C#Cc4ccccc4F)cc3)[C@H]2CO)s1 the AC50 [22] was 33.6 µM (active).

With COc1cc2c(cc1OC)C(c1ccc(N)cc1)=NNC(=O)C2 the AC50 (Cytochrome P450 2C19) was 15.8 µM (inconclusive), the AC50 (Cytochrome P450 1A2) was 39.8 µM (inconclusive) and the AC50 (Cytochrome P450 2C9) was 39.8 µM (inconclusive).

For Cc1cccc(OCC(=O)NCC(=O)N/N=C/c2cccnc2)c1, the EC50 (cells [8]) was > 350 µM (not active) and the EC50 (cells [9]) was > 350 µM (not active).

In the case of CCOC(=O)c1cc(C(O)(C(=O)OC)C(F)(F)F)c(/N=C/N(C)C)o1 (stereo not given), the IC50 [7] is reported as < 0.4 µM (not active).
